Results: patent publication US9695155B2, “Herbicidal substituted pyrimidinyloxy benzene compounds” (E. I. DU PONT DE NEMOURS AND COMPANY, priority 2013, dated 2017)

Experiments:
[1] = system: cocklebur; assay: Test E preemergence; assay type: in vivo, Xanthium strumarium; details: for Cocklebur plant response rating: scale 0 to 100 (0 no effect, 100 complete control); for Plant response rating, Cocklebur: scale 0 to 100, 0 no effect, 100 complete control
Description: Seeds of plant species selected from corn (Zea mays), soybean (Glycine max), velvetleaf (Abutilon theophrasti), lambsquarters (Chenopodium album), wild poinsettia (Euphorbia heterophylla), palmer pigweed (Amaranthus palmeri), waterhemp (common waterhemp, Amaranthus rudis), surinam grass (Brachiaria decumbens), large (Lg) crabgrass (Digitaria sanguinalis), Brazilian crabgrass (Digitaria horizontalis), fall panicum (Panicum dichotomiflorum), giant foxtail (Setaria faberii), green foxtail (Setaria viridis), goosegrass (Eleusine indica), johnsongrass (Sorghum halepense), ragweed (common ragweed, Ambrosia elatior), barnyardgrass (Echinochloa crus-galli), sandbur (southern sandbur, Cenchrus echinatus), arrowleaf sida (Sida rhombifolia), Italian ryegrass (Lolium multiflorum), dayflower (Virginia (VA) dayflower, Commelina virginica), field bindweed (Convolvulus arvensis), morningglory (Ipomoea coccinea), nightshade (eastern black nightshade, Solanum ptycanthum), kochia (Kochia scoparia), yellow nutsedge (Cyperus esculentus), cocklebur (common cocklebur, Xanthium strumarium), smartweed (ladysthumb smartweed, and hairy beggarticks (Bidens pilosa), were planted into a silt loam soil and treated preemergence with test chemicals formulated in a non-phytotoxic solvent mixture which included a surfactant.
At the same time, plants from these crop and weed species and also horseweed (Canada horseweed, Conyza canadensis), waterhemp_RES1, (ALS & Triazine resistant common waterhemp, Amaranthus rudis), and waterhemp_RES2, (ALS & HPPD resistant common waterhemp, Amaranthus rudis) were planted in pots containing Redi-Earth® planting medium (Scotts Company, 14111 Scottslawn Road, Marysville, Ohio 43041) comprising spaghnum peat moss, vermiculite, wetting agent and starter nutrients were treated with postemergence applications of test chemicals formulated in the same manner. Plants ranged in height from 2 to 18 cm for postemergence treatments (1- to 4-leaf stage). Treated plants and controls were maintained in a greenhouse for 14 to 21 days, after which time all species were compared to controls and visually evaluated. Plant response ratings, summarized in Table E, are based on a scale of 0 to 100 where 0 is no effect and 100 is complete control. A dash (-) response means no test result.

[2] = system: johnsongrass; assay: Test F preemergence; assay type: in vivo, Sorghum halepense; details: 21 days, scale 0 to 100
How it was run: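 Seeds are planted in a blend of loam and sand. Chemicals in a surfactant-containing non-phytotoxic solvent are applied before emergence. After 21 days under greenhouse conditions, plants are compared with controls and scored visually, 0–100.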

[3] = system: deadnettle; assay: Test D preemergence; assay type: in vivo, Lamium amplexicaule; details: Lamium amplexicaule, pre-emergence
Description: (§1) Seeds of plant species selected from bluegrass (annual bluegrass, Poa annua), blackgrass (Alopecurus myosuroides), canarygrass (littleseed canarygrass, Phalaris minor), chickweed (common chickweed, Stellaria media), galium (catchweed bedstraw, Galium aparine), bromegrass, downy (downy bromegrass, Bromus tectorum), field poppy (Papaver rhoeas), field violet (Viola arvensis), green foxtail (Setaria viridis), deadnettle (henbit deadnettle, Lamium amplexicaule), Italian ryegrass (Lolium multiflorum), kochia (Kochia scoparia), lambsquarters (Chenopodium album), oilseed rape (Brassica napus), pigweed (Amaranthus retroflexus), chamomile (scentless chamomile, Matricaria inodora), Russian thistle (Salsola kali), speedwell (bird's-eye speedwell, Veronica persica), spring barley (Hordeum vulgare), spring wheat (Triticum aestivum), wild buckwheat (Polygonum convolvulus), wild mustard (Sinapis arvensis), wild oat (Avena fatua), wild radish (Raphanus raphanistrum), windgrass (Apera spica-venti), winter barley (Hordeum vulgare), and winter wheat (Triticum aestivum) were planted into a silt loam soil and treated preemergence with test chemicals formulated in a non-phytotoxic solvent mixture which included a surfactant.
(§2) At the same time, these species were planted in pots containing Redi-Earth® planting medium (Scotts Company, 14111 Scottslawn Road, Marysville, Ohio 43041) comprising spaghnum peat moss, vermiculite, wetting agent and starter nutrients and treated with postemergence applications of the test chemicals formulated in the same manner. Plants ranged in height from 2 to 18 cm (1- to 4-leaf stage). Treated plants and controls were maintained in a controlled growth environment for 7 to 21 days after which time all species were compared to controls and visually evaluated. Plant response ratings, summarized in Table D, are based on a scale of 0 to 100 where 0 is no effect and 100 is complete control. A dash (-) response means no test result.

[4] = system: dallisgrass; assay: Test F preemergence; assay type: in vivo, Paspalum dilatatum; details: 21 days, scale 0 to 100
Description: (§3) Seeds of plant species selected from bermudagrass (Cynodon dactylon), surinam grass (Brachiaria decumbens), large (Lg) crabgrass (Digitaria sanguinalis), crabgrass, naked (naked crabgrass, Digitaria nuda), foxtail, green (green foxtail, Setaria viridis), johnsongrass (Sorghum halepense), kochia (Kochia scoparia), morningglory (pitted morningglory, Ipomoea lacunosa), nutsedge, purple (purple nutsedge, Cyperus rotundus), ragweed (common ragweed, Ambrosia elatior), mustard, black (black mustard, Brassica nigra), guineagrass (Panicum maximum), dallisgrass (Paspalum dilatatum), barnyardgrass (Echinochloa crus-galli), sandbur (southern sandbur, Cenchrus echinatus), sowthistle (common sowthistle, Sonchus oleraceous), Italian ryegrass (Lolium multiflorum), signalgrass (broadleaf signalgrass, Brachiaria platyphylla), dayflower (Virginia (VA) dayflower, Commelina virginica), bluegrass (annual bluegrass, Poa annua), quackgrass (Elytrigia repens), mallow (common mallow, Malva sylvestris), buckwheat, wild (wild buckwheat, Polygonum convolvulus), leafy spurge (Euphorbia esula), chickweed (common chickweed, Stellaria media), wild poinsettia (Euphorbia heterophylla), and pigweed (Amaranthus retroflexus) were planted into a blend of loam soil and sand and treated preemergence with test chemicals formulated in a non-phytotoxic solvent mixture which included a surfactant.
(§4) Treated plants and controls were maintained in a greenhouse for 21 days, after which time all species were compared to controls and visually evaluated. Plant response ratings, summarized in Table F, are based on a scale of 0 to 100 where 0 is no effect and 100 is complete control. A dash (-) response means no test result.

[5] = system: lambsquarters; assay: Test D postemergence; assay type: in vivo, Chenopodium album; details: Chenopodium album, post-emergence
How it was run: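 Values are 0–100 visual control ratings (0 none, 100 complete) given 7–21 days after application. Soil for preemergence was silt loam; postemergence plants stood 2–18 cm tall.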

[6] = system: field violet; assay: Test D preemergence; assay type: in vivo, Viola arvensis; details: Viola arvensis, pre-emergence
Description: as §1, §2

[7] = system: sandbur; assay: Test F preemergence; assay type: in vivo, Cenchrus echinatus; details: 21 days, scale 0 to 100
Description: as §3, §4

[8] = system: field poppy; assay: Test D postemergence; assay type: in vivo, Papaver rhoeas; details: Papaver rhoeas, post-emergence
Description: as §1, §2

[9] = system: pigweed; assay: Test D preemergence; assay type: in vivo, Amaranthus retroflexus; details: Amaranthus retroflexus, pre-emergence
Description: as §1, §2

Structure (SMILES): N#Cc1cnn(-c2c(C#N)cccc2Oc2ncc(Cl)cn2)c1 [Compound 200]
- Cocklebur plant response rating ([1]; 16 g ai/ha): 0
- Cocklebur plant response rating ([1]; 31 g ai/ha): 0
- Plant response rating, Cocklebur ([1]; 125 g ai/ha): 75
- Plant response rating, Cocklebur ([1]; 250 g ai/ha): 95

Structure (SMILES): N#Cc1cccc(Oc2ncc(Cl)cn2)c1-n1cc(OCC(F)(F)F)cn1 [Compound 274, 3-[(5-chloro-2-pyrimidinyl)oxy]-2-[4-(2,2,2-trifluoroethoxy)-1H-pyrazol-1-yl]benzonitrile]
- Plant response rating, Johnsongrass ([2]; 16 g ai/ha): 65
- Plant response rating, Johnsongrass ([2]; 31 g ai/ha): 70
- Plant response rating, Johnsongrass ([2]; 62 g ai/ha): 100
- Plant response rating, Johnsongrass ([2]; 125 g ai/ha): 100
- Plant response rating, Johnsongrass ([2]; 250 g ai/ha): 100
- pest or weed control at 16 g/ha ([3]; 16 g ai/ha, scale 0 (no effect) to 100 (complete control), read-out: Plant response rating, Deadnettle): 55%
- pest or weed control at 31 g/ha ([3]; 31 g ai/ha, scale 0-100, read-out: Plant response rating, Deadnettle): 100%
- pest or weed control at 62 g/ha ([3]; 62 g ai/ha, scale 0-100, read-out: Plant response rating, Deadnettle): 100%
- pest or weed control at 125 g/ha ([3]; 125 g ai/ha, scale 0-100, read-out: Plant response rating, Deadnettle): 100%
- Plant response rating, Dallisgrass ([4]; 16 g ai/ha): 95
- Plant response rating, Dallisgrass ([4]; 31 g ai/ha): 100
- Plant response rating, Dallisgrass ([4]; 62 g ai/ha): 100
- Plant response rating, Dallisgrass ([4]; 125 g ai/ha): 100
- Plant response rating, Dallisgrass ([4]; 250 g ai/ha): 100
- pest or weed control at 16 g/ha ([5]; 16 g ai/ha, scale 0-100, read-out: Plant response rating, Lambsquarters): 75%
- pest or weed control at 31 g/ha ([5]; 31 g ai/ha, scale 0 to 100 (0 no effect, 100 complete control), read-out: Plant response rating, Lambsquarters): 80%
- pest or weed control at 62 g/ha ([5]; 62 g ai/ha, scale 0 to 100 (0 no effect, 100 complete control), read-out: Plant response rating, Lambsquarters): 95%
- pest or weed control at 125 g/ha ([5]; 125 g ai/ha, scale 0 to 100 (0 no effect, 100 complete control), read-out: Plant response rating, Lambsquarters): 95%
- pest or weed control at 16 g/ha ([6]; 16 g ai/ha, scale 0 (no effect) to 100 (complete control), read-out: Plant response rating, Field Violet): 75%
- pest or weed control at 31 g/ha ([6]; 31 g ai/ha, scale 0-100, read-out: Plant response rating, Field Violet): 100%
- pest or weed control at 62 g/ha ([6]; 62 g ai/ha, scale 0-100, read-out: Plant response rating, Field Violet): 100%
- pest or weed control at 125 g/ha ([6]; 125 g ai/ha, scale 0-100, read-out: Plant response rating, Field Violet): 100%
- Plant response rating, Sandbur ([7]; 16 g ai/ha): 5
- Plant response rating, Sandbur ([7]; 31 g ai/ha): 20
- Plant response rating, Sandbur ([7]; 62 g ai/ha): 70
- Plant response rating, Sandbur ([7]; 125 g ai/ha): 95
- Plant response rating, Sandbur ([7]; 250 g ai/ha): 100
- pest or weed control at 16 g/ha ([8]; 16 g ai/ha, scale 0-100, read-out: Plant response rating, Field Poppy): 25%
- pest or weed control at 31 g/ha ([8]; 31 g ai/ha, scale 0 to 100 (0 no effect, 100 complete control), read-out: Plant response rating, Field Poppy): 40%
- pest or weed control at 62 g/ha ([8]; 62 g ai/ha, scale 0 to 100 (0 no effect, 100 complete control), read-out: Plant response rating, Field Poppy): 40%
- pest or weed control at 125 g/ha ([8]; 125 g ai/ha, scale 0 to 100 (0 no effect, 100 complete control), read-out: Plant response rating, Field Poppy): 80%
- pest or weed control at 16 g/ha ([9]; 16 g ai/ha, scale 0 (no effect) to 100 (complete control), read-out: Plant response rating, Pigweed): 70%
- pest or weed control at 31 g/ha ([9]; 31 g ai/ha, scale 0 (no effect) to 100 (complete control), read-out: Plant response rating, Pigweed): 100%
- pest or weed control at 125 g/ha ([9]; 125 g ai/ha, scale 0-100, read-out: Plant response rating, Pigweed): 100%

Structure (SMILES): N#Cc1cccc(Oc2ncc(Cl)cn2)c1-n1cc(Cl)cn1 [Compound 72]
- Cocklebur plant response rating ([1]; 16 g ai/ha): 0
- Plant response rating, Cocklebur ([1]; 125 g ai/ha): 0
- Plant response rating, Cocklebur ([1]; 250 g ai/ha): 15
